Molecules are shown by their SMILES.

One may read the IC50 as the concentration needed to halve the response being measured.

human RORgammaT-Ligand Binding Domain (LBD), sequence (P51449 269-508): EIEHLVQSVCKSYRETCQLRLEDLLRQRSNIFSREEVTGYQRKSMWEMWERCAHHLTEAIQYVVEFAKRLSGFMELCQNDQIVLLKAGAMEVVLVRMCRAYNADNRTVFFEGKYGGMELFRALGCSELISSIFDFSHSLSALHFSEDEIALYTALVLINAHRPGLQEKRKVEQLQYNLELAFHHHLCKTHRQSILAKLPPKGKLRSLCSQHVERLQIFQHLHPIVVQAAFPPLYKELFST

The target in the experiment is human RORgammaT-Ligand Binding Domain (LBD) (Homo sapiens (Human), UniProt P51449). The experiment is described as follows: RORγ-Ligand Binding Domain TR-FRET Assay (co-activator peptide SRC1_2 recruitment). In kind it is biochemical. Particulars: HIS-tagged RORγ-LBD 3 nM, biotinylated SRC1 LXXLL peptide 100 nM, incubated overnight at 4° C., 665 nm/615 nm ratio. A digest of the protocol:
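E. coli-expressed, Ni2+-purified HIS-tagged human RORγ-LBD at 3 nM final in 50 mM Tris pH 7.0, 50 mM KCl, 1 mM EDTA, 0.1 mM DTT, 100 μg/mL delipidated BSA. TR-FRET read-out of SRC1_2 co-activator peptide recruitment; compounds dispensed acoustically.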
For the compound `CC(C)(OC(=O)Nc1ccc2c(c1)N(S(=O)(=O)c1cc(C3CC3)ccc1F)C[C@H](CCC(=O)O)O2)C(F)(F)F` [Example 6CH, 3-[(2S)-4-[(5-cyclopropyl-2-fluorophenyl)sulfonyl]-6-{[(2,2,2-trifluoro-1,1-dimethylethoxy)carbonyl]amino}-3,4-dihydro-2H-1,4-benzoxazin-2-yl]propanoic acid], the IC50 came to 18.1 nM.

As to `Cc1nn(C(F)F)cc1S(=O)(=O)N1C[C@H](CC(C)(C)C(=O)O)Oc2ccc(NC(=O)OC(C)(C)C(F)(F)F)cc21` [Example 12o, 3-[(2S)-4-{[1-(difluoromethyl)-3-methyl-1H-pyrazol-4-yl]sulfonyl}-6-{[(2,2,2-trifluoro-1,1-dimethylethoxy)carbonyl]ami-no}-3,4-dihydro-2H-1,4-benzoxazin-2-yl]-2,2-dimethylpropanoic acid], the 50% inhibitory concentration (IC50) was 14.9 nM. As for `CC(C)(OC(=O)Nc1ccc2c(c1)N(S(=O)(=O)c1ccc(Cl)cn1)C[C@H](CCC(=O)O)O2)C(F)(F)F` [Example 6AL, (S)-2-((2-(2-carboxyethyl)-6-((((1,1,1-trifluoro-2-methylpropan-2-yl)oxy)carbonyl)amino)-2H-benzo[b][1,4]oxazin-4(3H)-yl)sulfonyl)-5-chloropyridine], the IC50 is 15 nM. On to `COc1cc(S(=O)(=O)N2C[C@H]([C@@H]3C[C@H]3C(=O)O)Oc3ccc(NC(=O)OC(C)(C)C(F)(F)F)cc32)ccc1F` (single isomer, unassigned) [Example 22J, (1R,2S or 1R,2R or 1S,2S or 1S,2R)-2-((S)-4-((4-fluoro-3-methoxyphenyl)sulfonyl)-6-((((1,1,1-trifluoro-2-methylpropan-2-yl)oxy)carbonyl)amino)-3,4-dihydro-2H-benzo[b][1,4]oxazin-2-yl)cyclopropanecarboxylic acid], for which the IC50 was determined as 13.5 nM. For `CC(C)(OC(=O)Nc1ccc2c(c1)N(S(=O)(=O)c1ccc(F)c(C(F)(F)F)c1)C[C@H]([C@@H]1C[C@@H]1C(=O)O)O2)C(F)(F)F` [Example 22B, (1S,2R)-2-((S)-4-((4-fluoro-3-(trifluoromethyl)phenyl)sulfonyl)-6-((((1,1,1-trifluoro-2-methylpropan-2-yl)oxy)carbonyl)amino)-3,4-dihydro-2H-benzo[b][1,4]oxazin-2-yl)cyclopropanecarboxylic acid], the IC50 worked out at 13.5 nM. Next, `CC(C)(OC(=O)Nc1cc(F)c2c(c1)N(S(=O)(=O)c1ccnc(C(F)(F)F)c1)C[C@H](CCC(=O)O)O2)C(F)(F)F` [Example 29H, 3-[(2S)-8-fluoro-6-{[(2,2,2-trifluoro-1,1-dimethylethoxy)carbonyl]ami-no}-4-{[2-(trifluoromethyl)pyridin-4-yl]sulfonyl}-3,4-dihydro-2H-1,4-benzoxazin-2-yl]propanoic acid]: 10.1 nM. `CC[C@@H](C[C@H]1CN(S(=O)(=O)c2cn(CC)nc2OCCO)c2cc(NC(=O)OC(C)(C)C(F)(F)F)ccc2O1)C(=O)O` (single isomer, unassigned) [Example 10N, (R or S)-2-(((S)-4-((1-ethyl-3-(2-hydroxyethoxy)-1H-pyrazol-4-yl)sulfonyl)-6-((((1,1,1-trifluoro-2-methylpropan-2-yl)oxy)carbonyl)amino)-3,4-dihydro-2H-benzo[b][1,4]oxazin-2-yl)methyl)butanoic acid]: the half-inhibitory concentration (IC50) was found to be 67.2 nM. For `COc1cc(S(=O)(=O)N2C[C@H](CCC(=O)O)Oc3ccc(NC(=O)O[C@H](C)C(C)(C)C)cc32)ccc1F` (single isomer, unassigned) [Example 24D, 3-{(2S)-4-[(4-fluoro-3-methoxyphenyl)sulfonyl]-6-[({[(1S or 1R)-1,2,2-trimethylpropyl]oxy}cxarbonyl)amino]-3,4-dihydro-2H-1,4-benzoxazin-2-yl}propanoic acid], the IC50 is 3.73 nM. For `CC(C)(OC(=O)Nc1cc(F)c2c(c1)N(S(=O)(=O)c1ccc(F)c(Cl)c1)C[C@H](CCC(=O)O)O2)C(F)(F)F` [Example 29F, 3-[(2S)-4-[(3-chloro-4-fluorophenyl)sulfonyl]-8-fluoro-6-{[(2,2,2-trifluoro-1,1-dimethylethoxy)carbonyl]ami-no}-3,4-dihydro-2H-1,4-benzoxazin-2-yl]propanoic acid], the IC50 was 5.7 nM. In the case of `CC(C)(OC(=O)Nc1ccc2c(c1)N(S(=O)(=O)c1cncc(Br)c1)C[C@H](CCC(=O)O)O2)C(F)(F)F` [Example 6BU, 3-[(2S)-4-[(5-bromopyridin-3-yl)sulfonyl]-6-{[(2,2,2-trifluoro-1,1-dimethylethoxy)carbonyl]amino}-3,4-dihydro-2H-1,4-benzoxazin-2-yl]propanoic acid], the IC50 came to 10.9 nM.

For `CCn1cc(S(=O)(=O)N2C[C@H](CCC(=O)O)Oc3ccc(NC(=O)OC(C)(C)C(F)(F)F)cc32)c(OC(F)F)n1` [Example 6BC, (S)-3-(4-((3-(difluoromethoxy)-1-ethyl-1H-pyrazol-4-yl)sulfonyl)-6-((((1,1,1-trifluoro-2-methylpropan-2-yl)oxy)carbonyl)amino)-3,4-dihydro-2H-benzo[b][1,4]oxazin-2-yl)propanoic acid], the IC50 turned out to be 11.9 nM. Consider `CC(C)(OC(=O)Nc1ccc2c(c1)N(S(=O)(=O)c1cccc(C3CC3)c1)C[C@@H](CC1(C(=O)O)CC1)O2)C(F)(F)F` [Example 14D, (R)-1-((4-((3-cyclopropylphenyl)sulfonyl)-6-((((1,1,1-trifluoro-2-methylpropan-2-yl)oxy)carbonyl)amino)-3,4-dihydro-2H-benzo[b][1,4]oxazin-2-yl)mehtyl)cyclopropanecarboxy-lic acid], for which the IC50 came out at 36.7 nM.

The values are drawn from patent US9783511B2, “Carbamate benzoxazine propionic acids and acid derivatives for modulation of RORgamma activity and the treatment of disease” (Merck Sharp & Dohme Corp., priority 2013, dated 2017).
